Measurements from publication PMC5218480 (PLoS ONE, 2017).

Tested on: MV-4-11 cells
Assay: Gene expression microarray analysis (Affymetrix PrimeView) and GSEA
Format: cell-based, human
Conditions: gene C12orf56, chromosome 12 open reading frame 56; Azacitidine 1 mM; LIST F

SMILES: Nc1ncn([C@@H]2O[C@H](CO)[C@@H](O)[C@H]2O)c(=O)n1 [azacitidine]
- RFU, C12orf56 (ProbeSet 11735607_a_at): 185.59 RFU
